Test results taken from US20260232693A1, “IMPROVING GLYMPHATIC-LYMPHATIC EFFLUX” (UNIVERSITY OF ROCHESTER, priority 2023, published 2026).
Entries after “also recorded” stand apart in the source; their conditions may differ.

How the values were obtained:
Assay type in all cases: in vivo, C57BL/6 mice
[1] = test system: cervical lymph nodes (cLNs); assay: Ex vivo cervical lymph node imaging of OVA-647 accumulation; settings: 90 min
Procedure: One microliter PBS with or without 5 μM PGF2a was applied directly onto the cervical lymph vessel simultaneously with the injection of OVA-647 (0.5% w/v, 45 kDa, Invitrogen, 10 μL, 2 μL/min) into cisterna magna for 90 min. Then the superficial and deep cervical lymph nodes were dissected and put on the microscope slices (Fisherbrand). The lymph nodes were placed under the macroscope (MVX10 Research Macro Zoom Microscope, 633 Olympus). The images were acquired in the far-red emission channel (647 nm).

[2] = Measurement of vital signs (heart and respiratory rate) before and after PGF2α; settings: topical PGF2α; young and old mice
Procedure: Heart and respiratory rate were measured using a small animal physiological monitoring 494 device (Harvard Apparatus) which acquired measurements at 1 kHz and 250 Hz, respectively. The signals were digitized and recorded with a DigiData 1550A digitizer and AxoScope software 496 (Axon Instruments).

[3] = test system: superficial cervical lymph vessels; assay: DB53 brain clearance assay (intrastriatal injection, brain retention and femoral vein signal)
Procedure: Clearance assay was conducted using our published method (Pla, V. et al. A real-time in vivo clearance assay for quantification of glymphatic efflux. Cell Rep 40, 111320 (2022)). Briefly, anesthetized mice were mounted in a stereotactic apparatus and a small burr hole was made (AP+0.6 mm; ML-2.0 mm). A guide cannula (26G, […] SPC, 4.5 mm below pedestal) and dummy cannula ([…], 0.1 mm projection) was placed at DV 3.3 mm. After 48 hr, the dummy cannula was replaced by the inner cannula (33G, […]/SP, 0.1 mm projection), connected by a PE10 tubing to a 10 μL Hamilton syringe containing 4% (w/v) DB53 in sterile aCSF. The left femoral vein was exposed via skin resection and was placed under a fluorescent macroscope (microscope: MVX10, Olympus; light: PRIOR Lumen 1600-LED; camera: Flash 4.0 digital, Hamamatsu). The pump infusion (1 μL, […]) was triggered simultaneously with the imaging over the vein, once every 15 min for 2 h for the intraparenchymal delivery. […] At the end of the experiment, animals were decapitated, and their brains were harvested for postmortem analysis. For quantitative image analysis for femoral vein and ex vivo in the brain is the same as described in Pla, V. et al. A real-time in vivo clearance assay for quantification of glymphatic efflux. Cell Rep 40, 111320 (2022).

[4] = test system: cervical lymphatic vessels (cLVs); assay: 2P-OPTIC two-photon imaging with particle tracking of cervical lymphatic vessel contraction and flow, before and after topical PGF2α; settings: for decrease in retrograde fraction / ejection rate / increase in ejection fraction / increase in ejection volume / median vessel diameter: after vs before PGF2α; for retrograde fraction after PGF2α / ejection fraction after PGF2α: mean±SEM; for increase in intrinsic pulsation rate: after vs before topical PGF2α 5 μM
[5] = test system: cervical lymphatic vessels (cLVs); assay: Epi-fluorescent macroscopic imaging of OVA-647 CSF tracer drainage in cervical lymphatic vessels; settings: 60 min imaging, 5 μM PGF2α topical
Procedure: Ovalbumin-conjugated to Alexa Fluor 647 (OVA-647, 0.5% w/v, 45 kDa, Invitrogen, 10 μL, 2 μL/min) was injected into the cisterna magna through a 30G needle connected to PE-10 tubing using a syringe pump (Harvard Apparatus). Cervical lymphatic vessels were surgically exposed as before and imaged using a fluorescent macroscope (MVX10, Olympus) with a PRIOR Lumen 1600-LED light source and ORCA Flash 4.0 digital camera (Hamamatsu) using Metamorph software. The images at 20× magnification from the far-red emission channel (647 nm) were collected at 1 min intervals for 60 min following the start of the injection. Exposure time was kept constant across all the experimental groups. One microliter PBS with or without 5 μM PGF2a was applied directly onto the cervical lymph vessel simultaneously with the injection of OVA-647 into cisterna magna.

Structure (SMILES): CCCCC[C@H](O)/C=C/[C@@H]1[C@@H](C/C=C\CCCC(=O)O)[C@@H](O)C[C@H]1O [PGF2α, prostaglandin F2α]
- accumulation of OVA647 in cLNs, ex vivo ([1]; 2-month-old mice): significantly larger accumulation
- accumulation of OVA647 in cLNs, ex vivo ([1]; 22-month-old mice): significantly larger accumulation
- respiratory rate [2]: did not induce changes; also recorded: unaffected
- DB53 signal in the femoral vein ([3]; 75 min, control 4.6±0.8): 8.3±1.3
- DB53 signal in the femoral vein ([3]; 90 min, control 5.5±0.6): 10.3±1.5
- DB53 signal in the femoral vein ([3]; 105 min, control 6.6±0.7): 10.8±1.4
- DB53 signal in the femoral vein ([3]; 120 min, control 6.8±0.7): 11.45±8.3
- DB53 signal in the femoral vein (brain clearance to plasma), overall vs control ([3]; 2 h imaging): dramatically increased
- DB53 retained in the brain (% area of DB53 fluorescence) ([3]; after intrastriatal DB53, control 10.1±1.3, mean±SEM): 6.3±0.9 % area
- decrease in retrograde fraction ([4]; 2-month-old mice): 64.2%
- ejection rate ([4]; 2-month-old mice): no change
- increase in ejection fraction ([4]; 2-month-old mice): 7.0%
- increase in ejection volume ([4]; 2-month-old mice): 148.6%
- median vessel diameter ([4]; 2-month-old mice): decreased
- retrograde fraction after PGF2α ([4]; 2-month-old mice, before: 8.1±1.0): 2.9±0.6%
- ejection fraction after PGF2α ([4]; 2-month-old mice, before: 90.8±0.8): 97.1±0.6%
- increase in CSF drainage (number of microsphere particles detected in cLVs) ([4]; 2-month-old mice, intracisternal fluorescent microspheres): 35.4%
- decrease in retrograde fraction ([4]; 22-month-old mice): 83.6%
- ejection rate ([4]; 22-month-old mice): no change
- increase in ejection fraction ([4]; 22-month-old mice): 31.7%
- increase in ejection volume ([4]; 22-month-old mice): 181.4%
- median vessel diameter ([4]; 22-month-old mice): decreased
- retrograde fraction after PGF2α ([4]; 22-month-old mice, before: 27.5±2.1): 4.5±0.4%
- ejection fraction after PGF2α ([4]; 22-month-old mice, before: 72.5±2.1): 95.5±0.5%
- solute arriving to the cLN (particle count) compared to untreated aged controls ([4]; aged mice, intracisternal fluorescent microspheres): ~4 times
- increase in intrinsic pulsation rate ([4]; old (22-month-old) mice): 152.0%
- increase in flow speeds ([4]; old mice, after vs before topical PGF2α): 3.5 fold
- contraction amplitude (Δd) ([4]; vs before PGF2α): increased
- increase in intrinsic pulsation rate ([4]; young (2-month-old) mice): 50.7%
- increase in downstream speed ([4]; young mice, after vs before topical PGF2α): 103.1%
- CSF drainage of OVA647 tracer (fluorescence intensity in cLVs) ([5]; old (22-month-old) mice): promoted robust CSF drainage
- CSF drainage of OVA647 tracer (fluorescence intensity in cLVs) ([5]; young mice): promoted robust CSF drainage
